From patent US20180078498A1, “Microneedle Patch for Delivering an Active Ingredient to Skin” (LEO Pharma A/S, priority 2015, published 2018)

Assay: Testing of biodegradable polymers as microneedle matrix (physical stability, release, chemical stability of active ingredient)
Type: physicochemical
Method: In the course of research leading to the present invention, a large number of different biodegradable polymers were tested for their suitability to form a matrix from which the microneedles could be made.

C=C1/C(=C\C=C2/CCC[C@]3(C)[C@@H]([C@H](C)/C=C/[C@@H](O)C4CC4)CC[C@@H]23)C[C@@H](O)C[C@@H]1O [calcipotriol]
chemical stability of calcipotriol (ester-terminated polylactide, polyglycolide or polylactide co-glycolide as the biodegradable polymer): chemically stable | chemical stability of calcipotriol (in a matrix of polylactic acid, polyglycolic acid or polylactic co-glycolic acid): not chemically stable
